Results published in ChEMBL document CHEMBL1147886, “Synthesis and pharmacological evaluation of novel conformationally constrained homologues of glutamic acid” (Eur J Med Chem, 2007).

How the values were obtained:
Assay type in all cases: cell membranes
[1] = Displacement of [3H]AMPA from AMPA receptor in rat cortical membrane
Glutamate NMDA receptor = assay: Displacement of [3H]CGP-39653 from NMDA receptor in rat cortical membrane
[2] = Displacement of [3H]KA from KA receptor in rat cortical membrane

| SMILES | IC50 [1] | Ki (Glutamate NMDA receptor) | IC50 [2] |
| --- | --- | --- | --- |
| O=C(O)[C@@H]1C[C@@]2(CN1)CC(O)=NO2 | > 100 µM | > 100 µM | > 100 µM |
| O=C(O)[C@H]1C[C@]2(CN1)CC(O)=NO2 | > 100 µM | > 100 µM | > 100 µM |
| O=C(O)C1=NO[C@]2(CN[C@H](C(=O)O)C2)C1 | > 100 µM | > 100 µM | > 100 µM |
| O=C(O)C1=NO[C@]2(CN[C@@H](C(=O)O)C2)C1 | > 100 µM | > 100 µM | > 100 µM |
| O=C(O)[C@@H]1C[C@]2(CN1)CC(O)=NO2 | > 100 µM | > 100 µM | > 100 µM |
| O=C(O)[C@H]1C[C@@]2(CN1)CC(O)=NO2 | > 100 µM | > 100 µM | > 100 µM |
| O=C(O)C1=NO[C@@]2(CN[C@H](C(=O)O)C2)C1 | > 100 µM | > 100 µM | > 100 µM |
| O=C(O)C1=NO[C@@]2(CN[C@@H](C(=O)O)C2)C1 | > 100 µM | > 100 µM | > 100 µM |
| N[C@@H](CCCP(=O)(O)O)C(=O)O | > 100 µM |  | > 100 µM |
| N[C@H](CCCP(=O)(O)O)C(=O)O | > 100 µM |  | > 100 µM |
| N[C@H](C[C@H]1CC(C(=O)O)=NO1)C(=O)O (racemic) | > 100 µM |  | > 100 µM |
| N[C@]1(C(=O)O)C[C@H]1[C@H]1CC(C(=O)O)=NO1 (racemic) | > 100 µM | > 100 µM | > 100 µM |
| N[C@]1(C(=O)O)C[C@H]1[C@@H]1CC(C(=O)O)=NO1 (racemic) | > 100 µM | 34 µM | > 100 µM |
| N[C@]1(C(=O)O)C[C@H]1[C@H]1CC(O)=NO1 (racemic) | > 100 µM | > 100 µM | > 100 µM |
| N[C@H](C[C@@H]1CC(C(=O)O)=NO1)C(=O)O (racemic) | > 100 µM |  | > 100 µM |
| N[C@]1(C(=O)O)C[C@H]1[C@@H]1CC(O)=NO1 (racemic) | > 100 µM | 13 µM | > 100 µM |
